Assay [1] has as its system female Syrian golden hamsters. The assay is described as follows: Post-coital antifertility activity in mated hamsters, subcutaneous (autopsy on day 14: implantation sites, live fetuses). The format is in vivo, Syrian golden hamster. As to conditions: for ED50: Mesocricetus auratus, sc, s.c. hamsters, days 4-8 of pregnancy, read-out: ED50 (100% activity, i.e. absence of live fetuses, in 50% of the animals); for antifertility activity (active according to the criteria): s.c. in sesame oil, 10 mg/kg daily for 5 days (days 4-8 of pregnancy), hamsters. As for the experimental part:
(§1) Representative experiments for assessing antifertility activity were carried out with female Syrian golden hamsters weighing 100 to 130 g. The animals were mated and the presence of sperm in the vagina was taken as evidence of mating. The day sperm was detected was considered day one of pregnancy, since in our laboratory and those of other investigators 90 to 100% of animals that mate as evidenced by vaginal sperm are pregnant.
(§2) Pregnancy was later confirmed at the time of autopsy by presence of fetuses or implantation sites in the uterus.
(§3) Even if an animal aborts the fetus, implantation scars still remain as evidence that the animal has been pregnant.
The animals were autopsied on day 14 of pregnancy and the uteri were examined for evidence of pregnancy (implantation sites, fetal resorptions or live fetuses), hemorrage, and evidence of abnormalities of the uterus, placenta or fetuses.

Another assay deals with hamsters. The assay can be described thus: Post-coital antifertility activity in mated hamsters, oral route. The format is in vivo, Syrian golden hamster. As to conditions: for reduction of live fetuses: oral, 20 mg/Kg, hamsters. On the procedure: as §1, §2, §3
The animals were autopsied on day 14 of pregnancy and the uteri were examined for evidence of pregnancy (implantation sites, fetal resorptions or live fetuses), hemorrage, and evidence of abnormalities of the uterus, placenta or fetuses. A compound was considered to be active if there was a reduction of live fetuses in at least 60% of the treated animals and the presence of implantation sites proves the animal to have been pregnant. […] The compounds were then studied for dose-activity relationships and the corresponding ED50 values i.e., 100% activity (absence of live fetuses) in 50% of the animals, were also determined. The following table reports the ED50 values of some representative compounds of the invention:
Favorable results were also obtained by administering the compounds of the invention by oral route. The experiments for assessing this property were carried out on hamsters following the same procedure as above, with the obvious exception that the compounds were adminstered orally instead of subcutaneously.

As a reminder, the ED50 is the dose at which the effect has come halfway, by size or by number of responders.

For the compound `COc1cccc(-c2n[nH]c(-c3ccccc3CO)n2)c1` [Example 1, 5-(2-hydroxymethylphenyl)-3-(3-methoxyphenyl)-1H-,1,2,4-triazole], the ED50 was 0.08 mg/kg in assay [1] and 10 mg/kg in the assay with hamsters (Mesocricetus auratus, po, p.o. hamsters, read-out: ED50 (100% activity, i.e. absence of live fetuses, in 50% of the animals)). Besides, the “antifertility activity (active according to the criteria)” value in assay [1] is listed as “active”. In addition, the “reduction of live fetuses” value in the assay on hamsters is listed as 60%.

For the compound `COc1cccc(-c2nc(-c3ccccc3C=O)n[nH]2)c1` [Example 3, 2-[5-(3-methoxyphenyl)-1H-1,2,4-triazol-3yl]benzaldehyde], in assay [1], the 50% effective dose (ED50) was 0.1 mg/kg and the “antifertility activity (active according to the criteria)” value is given as “active”. Also, the “reduction of live fetuses” value in the assay on hamsters came out at 60%.

The record behind these values is patent US4370337A, “1,2,4-Triazole derivatives as antifertility agents and pharmaceutical compositions containing them” (Gruppo Lepetit S.p.A., priority 1980, dated 1983).
